Our source for the IC50 values is patent US8134015B2, “Compound inhibiting in vivo phosphorous transport and medicine containing the same” (Kyowa Hakko Kirin Co., Ltd., priority 2003, dated 2012).

By IC50 is commonly meant the midpoint of a concentration-inhibition curve.

One experiment has as its target T1, rat NaPi-2b (Rattus norvegicus, UniProt Q9JJ09).
T1 construct: expressed in transfected cells; host or cells: Xenopus oocytes injected with cRNA
T1 sequence (Q9JJ09 1-695): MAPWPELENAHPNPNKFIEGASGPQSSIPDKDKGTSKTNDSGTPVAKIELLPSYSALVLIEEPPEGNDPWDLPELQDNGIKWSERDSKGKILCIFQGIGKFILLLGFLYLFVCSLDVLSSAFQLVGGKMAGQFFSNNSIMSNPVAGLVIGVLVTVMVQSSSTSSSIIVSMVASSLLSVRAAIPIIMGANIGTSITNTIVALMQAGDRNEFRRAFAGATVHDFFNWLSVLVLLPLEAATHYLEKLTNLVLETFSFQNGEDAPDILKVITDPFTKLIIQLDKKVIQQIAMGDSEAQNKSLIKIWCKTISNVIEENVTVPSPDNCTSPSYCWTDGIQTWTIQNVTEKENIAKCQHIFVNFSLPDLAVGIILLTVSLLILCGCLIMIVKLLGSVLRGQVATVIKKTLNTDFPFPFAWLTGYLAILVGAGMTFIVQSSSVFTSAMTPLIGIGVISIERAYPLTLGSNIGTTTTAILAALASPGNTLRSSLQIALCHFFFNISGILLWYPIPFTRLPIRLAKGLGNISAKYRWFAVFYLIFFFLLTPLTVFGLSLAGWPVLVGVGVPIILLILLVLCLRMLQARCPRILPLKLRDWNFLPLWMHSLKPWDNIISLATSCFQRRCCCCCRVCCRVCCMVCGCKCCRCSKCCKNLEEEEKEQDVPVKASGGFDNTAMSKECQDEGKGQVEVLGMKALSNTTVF
Description: Sodium-dependent phosphate uptake of Xenopus oocytes which expressed NaPi-2b (32P). To be noted: Xenopus oocytes expressing rat NaPi-2b, 32P radioactive phosphorus; read-out: IC50 (phosphate uptake inhibitory activity). It is filed as cell-based. An outline of the steps:
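Rat small-intestine NaPi-2b cRNA injected into Xenopus oocytes, expressed for 2 days. Sodium-dependent phosphate uptake measured with 32P; % inhibition at 300 and 100 μM taken from the same inhibition curve.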

The next experiment deals with T2, human NaPi-2a (Homo sapiens, UniProt Q06495).
T2 construct: expressed in transfected cells
T2 sequence (Q06495 1-639): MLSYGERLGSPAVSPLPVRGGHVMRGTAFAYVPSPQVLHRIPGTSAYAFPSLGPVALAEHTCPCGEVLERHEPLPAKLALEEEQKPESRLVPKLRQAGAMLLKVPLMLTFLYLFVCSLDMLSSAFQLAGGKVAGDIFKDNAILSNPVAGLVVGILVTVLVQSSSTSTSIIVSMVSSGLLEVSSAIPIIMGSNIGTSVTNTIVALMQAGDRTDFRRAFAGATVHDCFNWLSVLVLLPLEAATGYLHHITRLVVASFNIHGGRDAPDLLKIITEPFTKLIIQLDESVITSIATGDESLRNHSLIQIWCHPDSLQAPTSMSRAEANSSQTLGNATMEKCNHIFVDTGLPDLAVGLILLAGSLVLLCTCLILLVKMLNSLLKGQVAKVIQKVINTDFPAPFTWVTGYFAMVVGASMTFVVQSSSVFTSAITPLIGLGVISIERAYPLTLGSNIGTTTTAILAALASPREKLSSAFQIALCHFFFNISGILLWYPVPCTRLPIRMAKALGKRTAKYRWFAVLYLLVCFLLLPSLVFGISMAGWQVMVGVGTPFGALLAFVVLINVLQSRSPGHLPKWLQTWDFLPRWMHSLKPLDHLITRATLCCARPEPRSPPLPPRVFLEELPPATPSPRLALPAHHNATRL
Description: Sodium-dependent phosphate uptake of Xenopus oocytes which expressed NaPi-2a (32P). It is filed as cell-based. Particulars: phosphate uptake, Xenopus oocytes expressing human NaPi-2a; five concentration levels. An excerpt:
Experiment of Sodium-Dependent Phosphate Uptake of Xenopus oocytes which Expressed NaPi-2a
In the test, a group with the addition of choline chloride (Choline Cl) was used as a negative control for nonspecific uptake, and PFA (phosphonoformic acid) was used as a positive control for phosphate transport inhibition.

SMILES strings stand for the structures. A value given as a limit tells only on which side of the number the result lay.

As to `CCN(CC)CCN(CCN(CC)CC)Cc1cccc(C(=O)Nc2scc(C)c2C(=O)N/N=C/c2ccc(C)c(C)c2)c1` [Compound 838, 3-{[Bis-(2-diethylamino-ethyl)-amino]-methyl}-N-[3-(3,4-dimethyl-benzylidene-hydrazinocarbonyl)-4-methyl-thiophen-2-yl]-benzamide], the IC50 was less than 3 µM on rat NaPi-2b and 10.2 µM on human NaPi-2a.
The like results for `COc1ccc(/C=N/NC(=O)c2c(NC(=O)c3cccc(CN4CCC(O)CC4)c3)sc3c2CCCC3)cc1` [Compound 638, 3-(4-Hydroxy-piperidin-1-ylmethyl)-N-[3-(4-methoxy-benzylidene-hydrazinocarbonyl)-4,5,6,7-tetrahydro-benzo[b]thiophen-2-yl]-benzamide] were, in that order, 3.15 µM and 4.22 µM.
For `CC(O)CN(Cc1cccc(C(=O)Nc2sc3c(c2C(=O)N/N=C/c2ccc(Cl)c(C(F)(F)F)c2)CCCC3)c1)CC(C)O` (stereo not shown) [Compound 631, 3-{[Bis-(2-hydroxy-propyl)-amino]-methyl}-N-[3-(4-chloro-3-trifluoromethyl-benzylidene-hydrazinocarbonyl)-4,5,6,7-tetrahydro-benzo[b]thiophen-2-yl]-benzamide] the same measures were less than 1 µM and 2.43 µM.
For `Cc1ccc(/C=N/NC(=O)c2cc(N3CCCCC3)ccc2NC(=O)c2cccc(CSCCC(=O)O)c2)cc1` [Compound 887, 3-{3-[2-(4-Methyl-benzylidene-hydrazinocarbonyl)-4-piperidin-1-yl-phenylcarbamoyl]-benzylsulfanyl}-propionic acid] the same measures were 1.75 µM and 15.1 µM.
As for `CCN(CC)CCNCc1cccc(C(=O)Nc2sc3c(c2C(=O)N/N=C/c2ccc(Cl)c(C(F)(F)F)c2)CCC3)c1` [Compound 814, N-[3-(4-Chloro-3-trifluoromethyl-benzylidene-hydrazinocarbonyl)-5,6-dihydro-4H-cyclopenta[b]thiophen-2-yl]-3-[(2-diethylamino-ethylamino)-methyl]-benzamide], the IC50 at rat NaPi-2b was less than 3 µM; on human NaPi-2a it was 18.3 µM.
For `COc1ccc(/C=N/NC(=O)c2cc(N3CCCCC3)ccc2NC(=O)c2cccc(CSCCC(=O)O)c2)cc1` [Compound 890, 3-{3-[2-(4-Methoxy-benzylidene-hydrazinocarbonyl)-4-piperidin-1-yl-phenylcarbamoyl]-benzylsulfanyl}-propionic acid], the IC50 came to 3.91 µM on rat NaPi-2b and 1.33 µM at human NaPi-2a.
As for `CCN(CC)CCN(C)Cc1cccc(C(=O)Nc2ccc(N3CCCCC3)cc2C(=O)N/N=C/c2ccc(C)c(C)c2)c1` [Compound 858, 3-{[(2-Diethylamino-ethyl)-methyl-amino]-methyl}-N-[2-(3,4-dimethyl-benzylidene-hydrazinocarbonyl)-4-piperidin-1-ylphenyl]-benzamide], the values for the IC50 on rat NaPi-2b and on human NaPi-2a were 0.46 µM and less than 1 µM, respectively.
For `Cc1ccc(/C=N/NC(=O)c2cc(N3CCCCC3)ccc2NC(=O)c2cccc(CSCC(O)CO)c2)cc1C` (stereo not shown) [Compound 899, 3-(2,3-Dihydroxy-propylsulfanylmethyl)-N-[2-(3,4-dimethyl-benzylidene-hydrazinocarbonyl)-4-piperidin-1-yl-phenyl]-benzamide] the same measures were less than 1 µM and less than 1 µM.
The like results for `O=C(Nc1ccc(N2CCCCC2)cc1C(=O)N/N=C/c1ccc(Cl)c(C(F)(F)F)c1)c1cccc(CNCCN(CCO)CCO)c1` [Compound 914, 3-({2-[Bis-(2-hydroxy-ethyl)-amino]-ethylamino}-methyl)-N-[2-(4-chloro-3-trifluoromethyl-benzylidene-hydrazinocarbonyl)-4-piperidin-1-yl-phenyl]-benzamide] were, in that order, 1.75 µM and 3.13 µM.
The like results for `CCN(CC)CCN(CCN(CC)CC)Cc1cccc(C(=O)Nc2scc(C)c2C(=O)N/N=C/c2ccc(C)cc2)c1` [Compound 839, 3-{[Bis-(2-diethylamino-ethyl)-amino]-methyl}-N-[4-methyl-3-(4-methyl-benzylidene-hydrazinocarbonyl)-thiophen-2-yl]-benzamide] were, in that order, 5.04 µM and 23.2 µM.
Consider `O=C(Nc1ccc(N2CCCCC2)cc1C(=O)N/N=C/c1ccc(F)cc1)c1cccc(CSCCO)c1` [Compound 882, N-[2-(4-Fluoro-benzylidene-hydrazinocarbonyl)-4-piperidin-1-yl-phenyl]-3-(2-hydroxy-ethylsulfanylmethyl)-benzamide], for which the results for the IC50 at rat NaPi-2b and on human NaPi-2a were 0.33 µM and 4.45 µM, respectively.
For `Cc1csc(NC(=O)c2cccc(CN(CCO)CCO)c2)c1C(=O)N/N=C/c1ccc(F)cc1` [Compound 788, 3-{[Bis-(2-hydroxy-ethyl)-amino]-methyl}-N-[3-(4-fluoro-benzylidene-hydrazinocarbonyl)-4-methyl-thiophen-2-yl]-benzamide] the same measures were 2.04 µM and 6.64 µM.
The like results for `COc1ccc(/C=N/NC(=O)c2cc(N3CCCCC3)ccc2NC(=O)c2cccc(CSCC(O)CO)c2)cc1` (stereo not shown) [Compound 904, 3-(2,3-Dihydroxy-propylsulfanylmethyl)-N-[2-(4-methoxy-benzylidene-hydrazinocarbonyl)-4-piperidin-1-yl-phenyl]-benzamide] were, in that order, 1.71 µM and 1.69 µM.
For `Cc1ccc(/C=N/NC(=O)c2cc(N3CCCCC3)ccc2NC(=O)c2cccc(CN3CCN(CCO)CC3)c2)cc1C` [Compound 864, N-[2-(3,4-Dimethyl-benzylidene-hydrazinocarbonyl)-4-piperidin-1-yl-phenyl]-3-[4-(2-hydroxy-ethyl)-piperazin-1-ylmethyl]-benzamide] the same measures were 0.74 µM and 1.94 µM.
As to `CC(O)CN(Cc1cccc(C(=O)Nc2sc3c(c2C(=O)N/N=C/c2ccc(F)cc2)CCC3)c1)CC(C)O` (stereo not shown) [Compound 807, 3-{[Bis-(2-hydroxy-propyl)-amino]-methyl}-N-[3-(4-fluoro-benzylidene-hydrazinocarbonyl)-5,6-dihydro-4H-cyclopenta[b]thiophen-2-yl]-benzamide], the IC50 at rat NaPi-2b is less than 1 µM; at human NaPi-2a, 9.07 µM.
The like results for `Cc1ccc(/C=N/NC(=O)c2c(C)csc2NC(=O)c2cccc(CN3CCC4(CC3)OCCO4)c2)cc1C` [Compound 832, N-[3-(3,4-Dimethyl-benzylidene-hydrazinocarbonyl)-4-methyl-thiophen-2-yl]-3-(1,4-dioxa-8-aza-spiro[4,5]dec-8-ylmethyl)-benzamide] were, in that order, 4.97 µM and 6.4 µM.
On to `CCN(CC)CCNCc1cccc(C(=O)Nc2sc3c(c2C(=O)N/N=C/c2ccc(C)c(C)c2)CCC3)c1` [Compound 810, 3-[(2-Diethylamino-ethylamino)-methyl]-N-[3-(3,4-dimethyl-benzylidene-hydrazinocarbonyl)-5,6-dihydro-4H-cyclopenta[b]-thiophen-2-yl]-benzamide], for which the results for the IC50 at rat NaPi-2b and on human NaPi-2a were 6.68 µM and 23.8 µM, respectively.
